{
  "source": "patent US20250186439A1",
  "about": "“PYK2 INHIBITION MODULATES IMMUNE CELL FUNCTION” (The Children's Medical Center Corporation, priority 2022, published 2025)",
  "key": {"Raw264.7": {"tested_on": "Raw264.7", "assay": "RANKL-induced osteoclast differentiation of Raw264.7 cells (TRAP activity and staining)", "type": "cell-based, mouse", "settings": "for TRAP activity: listed as Pyk2 inhibitor", "experimental": "FIGS. 8A-8F. Effect of Pyk2 inhibition on RANKL induced osteoclast differentiation. FIG. 8A: Schematic depicting the experimental design for testing the effect of Pyk2 inhibition on RANKL-induced osteoclast differentiation. On day 1, Raw264.7 macrophages are pretreated with Pyk2 inhibitor and then treated on day 2 with fresh culture medium comprising 100 ng/mL RANKL to stimulate differentiation to osteoclasts. The quantity of mature, differentiated osteoclasts is measured by tartrate-resistant acid […] (TRAP) activity on day 6. FIG. 8B: TRAP activity of mature, differentiated osteoclasts treated as described in FIG. 8A. […] FIG. 8C: Phase-contrast microscope images of TRAP-stained osteoclasts, treated as described in FIG. 8A, at ×20 magnification. FIG. 8D: Schematic depicting the experimental design for testing the effect of Pyk2 inhibition on RANKL-induced osteoclast differentiation. On day 2, Raw264.7 macrophages are treated with fresh culture medium comprising 100 ng/mL RANKL to stimulate differentiation to osteoclasts, then are subsequently treated on day 3 with Pyk2 inhibitor. FIG. 8E: TRAP activity of mature, differentiated osteoclasts treated as described in FIG. 8D. […] FIG. 8F: Phase-contrast microscope images of TRAP-stained osteoclasts, treated as described in FIG. 8D, at ×20 magnification.\nTo explore this question, an Abelson leukemia virus transformed monocyte/macrophage-like cell line derived from BALB/c mice, Raw264.7, was used. To induce differentiation to osteoclasts, Raw264.7 cells were treated with receptor activator of nuclear factor kappa-B ligand (RANKL), also known as osteoclast differentiation factor (ODF). Raw264.7 cells and differentiated osteoclasts were treated with Pyk2 inhibitor, as in Example 2.\nRaw264.7 cells were cultured and treated with Pyk2 inhibitors after 24 hours, then differentiated into osteoclasts after 24 hours of Pyk2 inhibitor treatment (FIG. 8A). Four days after differentiation into osteoclasts, the cells were then assessed for tartrate-resistant acid phosphatase (TRAP) activity and presence, as TRAP is a biomarker expressed by mature, differentiated osteoclasts, but not undifferentiated progenitor cells.\nTherefore, the effect of Pyk2 inhibition was also assessed by culturing RAW264.7 cells, differentiating into osteoclasts after 2 days, the treating with Pyk2 inhibitor for 24 hours, 1 day after differentiating (FIG. 8D). […] Therefore, Pyk2 inhibition could ultimately result in an increase in bone mass."}, "MG6 cells": {"tested_on": "MG6 cells", "assay": "Multinucleation of MG6 microglia (DAPI, Iba1 staining)", "type": "cell-based, mouse", "experimental": "FIGS. 4A-4E. Induction of multinucleated cells by a Pyk2 inhibitor. FIG. 4A: Microscopic images depicting the effect of a Pyk2 inhibitor on the morphology of MG6 cells. MG6 cell line is established with neonatal C57BL/6 mouse microglia that are collected from whole brain and transformed with c-myc oncogene. MG6 cells were stimulated with 100 ng/mL CSF-1 for 48 hours and then cultured for 24 hours with various concentrations of Pyk2 inhibitor: 0 nM, 100 nM, 500 nM and 1000 nM. FIG. 4B: Quantification of the effect of a Pyk2 inhibitor on the proliferation of MG6 cells. MG6 cells were stimulated with CSF-1 and cultured with various concentrations of Pyk2 inhibitor as in FIG. 4A. The baseline proliferation rate is defined as 100 ng/mL CSF-1 treatment for 48 hours. Proliferation of MG6 cells with various concertation of Pyk2 inhibitor treatment is measured using a Cell Counter Kit for 4 hours of incubation. No difference in MG6 cell proliferation is observed at the Pyk2 inhibitor concentration of 100 nM. […] FIG. 4C: Microscopic images depicting multinucleated MG6 cells with 24 hours of 1000 nM Pyk2 inhibitor treatment following 48 hours of 100 ng/mL CSF-1 treatment. […] Multinucleated cells with two or more nuclei are observed as marked with circles in the bottom image. FIG. 4D: Quantification of the proportion of multinucleated cells after 0 nM, 500 nM, and 1000 nM Pyk2 inhibitor treatment. MG6 cells were treated with Pyk2 inhibitor for 24 hours after 48 hours of 100 ng/mL CSF-1 treatment. […] FIG. 4E: Immunohistochemical staining depicting multinucleation of Pyk2 inhibitor treated microglia. MG6 cells were stained with anti-Tubulin and anti-Iba1, while nuclei were stained with DAPI. Cells were observed via confocal microscopy (×600). MG6 cells were treated without Pyk2 inhibitor (left) or with 1000 nM Pyk2 inhibitor (right) after 48 hours of 100 ng/mL CSF-1 treatment. Scale bar is 20 μm. […]\nTo further assess the function of Pyk2 during neurodegenerative disorders, such as AD, the effect of Pyk2 inhibition was assessed in a microglial cell line. […]"}},
  "note": "Entries after “also recorded” stand apart in the source; their conditions may differ.",
  "data": [
    {"smiles": "CN(c1ccccc1CNc1nc(Nc2ccc3c(c2)CC(=O)N3)ncc1C(F)(F)F)S(C)(=O)=O", "note": "[PF-431396]", "values": [
      {"measurement": "TRAP activity", "setting": "Raw264.7; 1000 nM for 24 hours, 1 day after RANKL", "value": "statistically significant reduction; also recorded: significantly reduced"},
      {"measurement": "TRAP staining", "setting": "Raw264.7; inhibitor for 24 hours, 1 day after RANKL", "value": "apparent reduction"},
      {"measurement": "TRAP activity", "setting": "Raw264.7; inhibitor pretreatment (up to 1000 nM) before RANKL", "value": "not statistically significant; also recorded: no significant differences"},
      {"measurement": "TRAP staining", "setting": "Raw264.7; inhibitor pretreatment before RANKL", "value": "did not reveal any obvious difference"},
      {"measurement": "multinucleation of MG6 cells", "setting": "MG6 cells; 500 nM, 24 h after 48 h CSF-1", "value": "insufficient to induce multinucleation"},
      {"measurement": "level of Iba1 in cytoplasm of multinucleated MG6 cells", "setting": "MG6 cells; 1000 nM", "value": "increased level"},
      {"measurement": "multinucleation of MG6 cells / proportion of multinucleated cells", "setting": "MG6 cells; 1000 nM, 24 h after 48 h CSF-1, listed as Pyk2 inhibitor", "value": "multinucleation of MG6 cells was observed; also recorded: significantly increased"}
    ]}
  ]
}
